We go through 39 compounds from ChEMBL document CHEMBL4020849, “4,6-Diaminopyrimidines as Highly Preferred Troponin I-Interacting Kinase (TNNI3K) Inhibitors” (J Med Chem, 2018).

The nature of data set [1]: Oral bioavailability in Sprague-Dawley rat plasma at 2 mg/kg administered as gastric bolus dose by LC-MS/MS analysis. Type of data set: ADME, organism-based.
Data set [2] in a line: Clearance in Sprague-Dawley rat plasma at 1 mg/kg, iv administered as 30 mins infusion by LC-MS/MS analysis. It is filed as ADME, organism-based.
The test system of the next data set is Rattus norvegicus. As to the kind of experiment: Dose normalized AUC in Sprague-Dawley rat plasma at 2 mg/kg, po administered as gastric bolus dose by LC-MS/MS analysis. It is filed as ADME, organism-based. The settings on record: in vivo.
For data set [3], the target named is Epidermal growth factor receptor (Homo sapiens, UniProt P00533). The data set can be described thus: Inhibition of EGFR (unknown origin).
Chain of Epidermal growth factor receptor (P00533 whole entry): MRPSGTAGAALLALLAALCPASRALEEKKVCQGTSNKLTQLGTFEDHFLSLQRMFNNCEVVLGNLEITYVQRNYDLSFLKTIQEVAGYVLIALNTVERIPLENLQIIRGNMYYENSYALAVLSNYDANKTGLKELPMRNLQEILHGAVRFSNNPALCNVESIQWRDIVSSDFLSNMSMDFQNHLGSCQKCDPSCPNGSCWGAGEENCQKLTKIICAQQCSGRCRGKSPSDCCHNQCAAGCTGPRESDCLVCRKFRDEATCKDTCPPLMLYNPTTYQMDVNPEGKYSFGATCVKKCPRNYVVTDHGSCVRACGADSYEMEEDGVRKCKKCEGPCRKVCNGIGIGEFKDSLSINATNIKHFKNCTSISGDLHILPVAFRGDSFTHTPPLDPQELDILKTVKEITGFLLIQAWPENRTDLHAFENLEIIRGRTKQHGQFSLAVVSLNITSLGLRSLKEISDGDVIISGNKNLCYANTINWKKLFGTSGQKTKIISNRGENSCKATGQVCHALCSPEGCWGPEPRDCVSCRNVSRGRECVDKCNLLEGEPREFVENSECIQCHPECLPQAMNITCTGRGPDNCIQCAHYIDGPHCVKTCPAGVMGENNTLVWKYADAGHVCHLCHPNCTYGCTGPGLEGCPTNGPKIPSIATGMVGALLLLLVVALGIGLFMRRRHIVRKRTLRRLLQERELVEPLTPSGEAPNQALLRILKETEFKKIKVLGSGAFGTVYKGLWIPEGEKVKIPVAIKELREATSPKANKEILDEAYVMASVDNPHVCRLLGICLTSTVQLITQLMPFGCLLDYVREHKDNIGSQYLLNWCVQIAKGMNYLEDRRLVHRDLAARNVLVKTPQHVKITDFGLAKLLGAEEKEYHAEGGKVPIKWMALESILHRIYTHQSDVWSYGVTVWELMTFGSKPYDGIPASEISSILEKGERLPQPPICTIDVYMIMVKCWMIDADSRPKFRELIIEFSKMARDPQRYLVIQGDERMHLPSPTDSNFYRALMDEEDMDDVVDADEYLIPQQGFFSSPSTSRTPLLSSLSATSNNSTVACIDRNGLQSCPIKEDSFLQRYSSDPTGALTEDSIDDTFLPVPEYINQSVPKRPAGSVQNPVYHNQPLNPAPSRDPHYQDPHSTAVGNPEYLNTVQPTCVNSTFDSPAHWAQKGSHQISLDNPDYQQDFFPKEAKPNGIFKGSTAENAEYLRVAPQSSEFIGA
In data set [4] the target is T1, Serine/threonine-protein kinase TNNI3K (Homo sapiens, UniProt Q59H18).
T1 sequence (Q59H18 whole entry): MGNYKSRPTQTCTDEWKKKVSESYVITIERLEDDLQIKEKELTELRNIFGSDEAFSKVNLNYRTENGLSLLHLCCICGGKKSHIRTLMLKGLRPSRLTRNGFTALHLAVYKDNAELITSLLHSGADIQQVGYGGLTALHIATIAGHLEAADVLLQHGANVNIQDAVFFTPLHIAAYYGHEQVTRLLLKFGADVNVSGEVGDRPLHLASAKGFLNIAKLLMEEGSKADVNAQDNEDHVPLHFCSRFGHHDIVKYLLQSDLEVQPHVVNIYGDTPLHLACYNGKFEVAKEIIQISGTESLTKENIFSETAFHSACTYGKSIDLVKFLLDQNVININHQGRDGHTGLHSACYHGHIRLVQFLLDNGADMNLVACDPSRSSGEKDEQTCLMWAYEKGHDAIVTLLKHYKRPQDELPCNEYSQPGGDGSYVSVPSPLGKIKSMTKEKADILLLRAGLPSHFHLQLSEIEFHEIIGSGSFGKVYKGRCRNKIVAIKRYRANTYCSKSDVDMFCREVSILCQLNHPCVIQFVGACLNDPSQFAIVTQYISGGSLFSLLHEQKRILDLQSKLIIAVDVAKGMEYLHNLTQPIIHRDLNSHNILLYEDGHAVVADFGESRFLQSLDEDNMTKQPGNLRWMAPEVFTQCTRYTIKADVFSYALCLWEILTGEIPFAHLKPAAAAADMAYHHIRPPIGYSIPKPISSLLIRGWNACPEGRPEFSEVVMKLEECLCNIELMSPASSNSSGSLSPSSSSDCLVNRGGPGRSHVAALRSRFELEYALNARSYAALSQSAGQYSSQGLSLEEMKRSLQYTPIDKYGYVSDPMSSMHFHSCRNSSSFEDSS
The data set can be described thus: Inhibition of 5-({[2-({[3-({4-[(5-hydroxy-2-methylphenyl)amino]-2-pyrimidinyl}amino)phenyl]carbonyl}amino)-ethyl]amino}carbonyl)-2-(6-hydroxy-3-oxo-3H-xanthen-9-yl)benzoic acid binding to human full length His/MBP-fused TNNI3K expressed in baculovirus expression system after 60 mins by fluorescence polarization assay.

Data set [5] is described as follows: Selectivity index, ratio of IC50 for EGFR (unknown origin) to IC50 for human full length His/MBP-fused TNNI3K expressed in baculovirus expression system.
The target in data set [6] is T1, Serine/threonine-protein kinase TNNI3K. As to the kind of experiment: Inhibition of human Myc-tagged TNNI3K autophosphorylation expressed in HEKMSR2 cells after 30 mins by DELFIA. It is filed as cell-based.
Data set [7] can be described thus: Selectivity index, ratio of IC50 for full length His6-tagged BRAF (unknown origin) expressed in baculovirus expression system to IC50 for human full length His/MBP-fused TNNI3K expressed in baculovirus expression system.
The target in data set [8] is Serine/threonine-protein kinase B-raf (Homo sapiens, UniProt P15056). The data set can be described thus: Inhibition of full length His6-tagged BRAF (unknown origin) expressed in baculovirus expression system assessed as reduction in MEK phosphorylation by measuring ADP production by BRAMA.
Chain of Serine/threonine-protein kinase B-raf (P15056 whole entry): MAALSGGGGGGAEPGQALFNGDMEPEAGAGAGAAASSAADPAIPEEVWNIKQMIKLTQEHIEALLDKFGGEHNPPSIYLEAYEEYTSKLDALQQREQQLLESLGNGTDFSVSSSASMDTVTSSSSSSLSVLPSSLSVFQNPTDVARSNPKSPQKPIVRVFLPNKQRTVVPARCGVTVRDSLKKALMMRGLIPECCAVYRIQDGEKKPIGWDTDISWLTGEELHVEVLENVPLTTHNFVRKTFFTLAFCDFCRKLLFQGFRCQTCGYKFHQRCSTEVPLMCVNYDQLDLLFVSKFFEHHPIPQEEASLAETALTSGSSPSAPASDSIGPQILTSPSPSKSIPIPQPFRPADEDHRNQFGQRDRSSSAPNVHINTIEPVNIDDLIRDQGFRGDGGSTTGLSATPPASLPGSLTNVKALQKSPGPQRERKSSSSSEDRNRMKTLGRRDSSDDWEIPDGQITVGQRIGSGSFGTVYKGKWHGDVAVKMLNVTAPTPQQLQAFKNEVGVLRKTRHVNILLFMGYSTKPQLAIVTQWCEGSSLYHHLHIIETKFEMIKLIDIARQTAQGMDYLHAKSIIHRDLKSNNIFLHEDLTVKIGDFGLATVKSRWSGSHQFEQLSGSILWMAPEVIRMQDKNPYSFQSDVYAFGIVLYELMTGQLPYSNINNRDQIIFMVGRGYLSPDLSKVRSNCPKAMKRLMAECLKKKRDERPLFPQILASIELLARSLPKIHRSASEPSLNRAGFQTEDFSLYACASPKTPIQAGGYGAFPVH

By bioavailability is commonly meant the share of a dose that reaches the circulation, judged against a reference dose that is usually intravenous. A high value points to much systemic uptake. For orientation: clearance means the volume of plasma or blood freed of the substance per unit of time. A low value points to inefficient removal. In turn, `CNS(=O)(=O)c1ccc(SC)c(Nc2cc(Nc3ccc(Cl)cc3)ncn2)c1` registered a bioavailability in data set [1] of 52%. In [2], this compound returned a clearance of 4.5 mL/min/kg. The AUC/dose in the data set with Rattus norvegicus worked out at 2.1 kg·h/L.
For orientation: IC50 means the concentration needed to halve the response being measured. For the compound `CNS(=O)(=O)c1cccc(Nc2cc(Nc3cccc(C(C)C)c3)ncn2)c1`, the IC50 was 0.025 µM in [3] and 0.05 µM in data set [4]. Further, the “Ratio IC50” value in [5] amounted to 0.5.
`CNS(=O)(=O)c1cccc(Nc2ccnc(Nc3cccc(C)c3)c2)c1` had an IC50 in data set [4] of 5 µM.
Take `CNS(=O)(=O)c1cccc(Nc2cc(Nc3cccc([N+](=O)[O-])c3)ncn2)c1`: the figures for the concentration for half-maximal inhibition (IC50) in data set [6] and in data set [3] were 0.5 µM and 0.004 µM, respectively.
Turning to `CNS(=O)(=O)c1cccc(Nc2cc(Nc3ccc(Cl)cn3)ncn2)c1`, in [1], the bioavailability is 65%. Also, the values for the IC50 in [3] and in [4] were 0.63 µM and 0.02 µM, respectively. The same compound gave a clearance in data set [2] of 16 mL/min/kg. This compound also came in with an AUC/dose in the data set on Rattus norvegicus of 0.67 kg·h/L. The “Ratio IC50” value in [5] was 32.
Consider `CNS(=O)(=O)c1cccc(Nc2cc(Nc3ccccc3F)ncn2)c1`, for which the half-inhibitory concentration (IC50) in data set [4] was determined as 0.63 µM.
The compound `CNS(=O)(=O)c1cccc(Nc2cc(Nc3ccc(Cl)cc3)ncn2)c1` came in with a bioavailability in data set [1] of 100%. Besides, the figures for the IC50 in [3] and in data set [4] were 0.013 µM and 0.079 µM, respectively. Further, in data set [2], the clearance is 23 mL/min/kg. The compound further yielded an AUC/dose with Rattus norvegicus of 0.71 kg·h/L.
As for `CNS(=O)(=O)c1cccc(Nc2cc(Nc3cccc(Br)c3)ncn2)c1`, in [1], the bioavailability was 33%. In data set [4], this compound gave an IC50 of 0.079 µM. This compound also had a clearance in data set [2] of 53 mL/min/kg. Further, the AUC/dose in the data set with Rattus norvegicus came to 0.1 kg·h/L.
`CNS(=O)(=O)c1ccc(S(=O)(=O)C(C)C)c(Nc2cc(Nc3ccc(Cl)cn3)ncn2)c1`: the values for the 50% inhibitory concentration (IC50) in data set [4] and in data set [8] were not above 0.01 µM and 0.5 µM, respectively. For the same compound, the “Ratio IC50” value in data set [7] is listed as “>=50”. In the data set on Rattus norvegicus, the AUC/dose is 0.27 kg·h/L.
`CNS(=O)(=O)c1cccc(Nc2cc(Nc3cccc(Cl)c3)ncn2)c1`: the bioavailability in [1] stood at 20%. The same compound showed an IC50 in [4] of 0.079 µM. Moreover, the clearance in data set [2] came to 52 mL/min/kg. The compound also returned an AUC/dose in the data set on Rattus norvegicus of 0.064 kg·h/L.
`CNS(=O)(=O)c1cccc(Nc2cc(Nc3ccccc3)ncn2)c1` returned a half-maximal inhibitory concentration (IC50) in [4] of 0.063 µM.
Still for that read-out and setting: next, `CNS(=O)(=O)c1cccc(Nc2cc(Nc3ccc(C)cc3)ncn2)c1`: 0.079 µM.
On to `CNS(=O)(=O)c1ccc(OCC(F)(F)F)c(Nc2cc(Nc3ccc(Cl)cc3)ncn2)c1`, for which the bioavailability in data set [1] worked out at 37%. In [2], this compound returned a clearance of 20 mL/min/kg. The compound further came in with an AUC/dose with Rattus norvegicus of 0.32 kg·h/L.
For the compound `CNS(=O)(=O)c1ccc(OC(F)(F)F)c(Nc2cc(Nc3ccc(Cl)cc3)ncn2)c1`, the bioavailability in data set [1] worked out at 84%. Moreover, in data set [6], half-maximal inhibition (IC50) was put at 0.32 µM. In data set [2], this compound gave a clearance of 16 mL/min/kg. This compound also registered an AUC/dose in the data set on Rattus norvegicus of 0.86 kg·h/L.
As to `CNS(=O)(=O)c1ccc(S(C)(=O)=O)c(Nc2cc(Nc3ccc(Cl)cn3)ncn2)c1`, the IC50 in data set [4] stood at 0.013 µM; in [8], 0.2 µM. The “Ratio IC50” value in [7] is 15. Besides, the AUC/dose in the data set with Rattus norvegicus worked out at 0.76 kg·h/L.
`CNS(=O)(=O)c1cccc(Nc2cc(Nc3cccc(OC)c3)ncn2)c1`: in data set [4], the IC50 is 0.063 µM.
`CNS(=O)(=O)c1ccc(F)c(Nc2cc(Nc3ccc(Cl)cc3)ncn2)c1`: the AUC/dose in the data set with Rattus norvegicus was 1.1 kg·h/L.
In [4], `CNS(=O)(=O)c1cccc(Nc2ccnc(Nc3cccc(C)c3)n2)c1` returned an IC50 of 0.63 µM.
`CNS(=O)(=O)c1cccc(Nc2cc(Nc3ccccc3C)ncn2)c1` registered an IC50 in [4] of 1.3 µM.
On to `CNS(=O)(=O)c1cccc(Nc2cc(Nc3cccc(S(=O)(=O)NC)c3)ncn2)c1`, for which the results for the concentration for half-maximal inhibition (IC50) in data set [3] and in [4] were 1.6 µM and 0.079 µM, respectively. Further, the “Ratio IC50” value in data set [5] stood at 20.
Consider `CNS(=O)(=O)c1cccc(Nc2cc(Nc3ccccc3OC)ncn2)c1`, for which the IC50 in data set [4] came to 3.2 µM.
For `CNS(=O)(=O)c1ccc(OC(F)(F)F)c(Nc2cc(Nc3ccc(Cl)cn3)ncn2)c1`, in data set [1], the bioavailability turned out to be 67%. The compound also returned an IC50 in [6] of 0.063 µM. The clearance in data set [2] turned out to be 12 mL/min/kg. The same compound gave an AUC/dose in the data set on Rattus norvegicus of 0.91 kg·h/L.
`CNS(=O)(=O)c1ccc(N(C)C)c(Nc2cc(Nc3ccc(Cl)cc3)ncn2)c1`: in [1], the bioavailability came to 30%. This compound gave an IC50 in [4] of 0.079 µM. Further, the clearance in data set [2] was 52 mL/min/kg. The compound also showed an AUC/dose with Rattus norvegicus of 0.096 kg·h/L.
Compound `CNS(=O)(=O)c1cccc(Nc2cc(Nc3ccc(S(C)(=O)=O)cc3)ncn2)c1` gave an IC50 in [4] of 0.079 µM.
Consider `CNS(=O)(=O)c1cccc(Nc2cc(N(C)c3cccc(C)c3)ncn2)c1`, for which the figures for the IC50 in data set [3] and in [4] were 0.02 µM and 2 µM, respectively. Further, the “Ratio IC50” value in data set [5] came to 0.01.
On to `CNS(=O)(=O)c1ccc(OCC(F)(F)F)c(Nc2cc(Nc3ccc(Cl)cn3)ncn2)c1`, for which the bioavailability in [1] was determined as 99%. The half-maximal inhibitory concentration (IC50) in data set [4] was not above 0.01 µM; in data set [8], 0.013 µM. The clearance in data set [2] was found to be 7.4 mL/min/kg. The compound also came in with an AUC/dose in the data set on Rattus norvegicus of 2.3 kg·h/L.
In [4], `CNS(=O)(=O)c1cccc(Nc2cc(Nc3ccc(C(F)(F)F)cn3)ncn2)c1` had an IC50 of 0.016 µM.
For the compound `CNS(=O)(=O)c1ccc(S(=O)(=O)C(C)(C)C)c(Nc2cc(Nc3ccc(Cl)cn3)ncn2)c1`, the results for the IC50 in [4] and in data set [8] were not above 0.01 µM and 2 µM, respectively. Moreover, in data set [7], the “Ratio IC50” value was “>=200”. In the data set with Rattus norvegicus, this compound displayed an AUC/dose of 0.076 kg·h/L.
Regarding `CNS(=O)(=O)c1cccc(Nc2cc(Nc3cccc(C)c3)ncn2)c1`, in [1], the bioavailability was 19%. Besides, the IC50 in data set [3] is 0.003 µM; in data set [4] it was 0.032 µM. The compound further came in with a clearance in data set [2] of 86 mL/min/kg. For the same compound, the AUC/dose in the data set with Rattus norvegicus worked out at 0.037 kg·h/L. Moreover, the “Ratio IC50” value in [5] is reported as 0.1.
`CNS(=O)(=O)c1cccc(Nc2cc(Nc3cccc(S(C)(=O)=O)c3)ncn2)c1`: the half-maximal inhibitory concentration (IC50) in data set [4] came out at 0.2 µM.
As for `CNS(=O)(=O)c1cccc(N(C)c2cc(Nc3cccc(C)c3)ncn2)c1`, the half-inhibitory concentration (IC50) in [3] came to 2 µM; in data set [4], 8 µM. The “Ratio IC50” value in [5] came out at 0.25.
The compound `CNS(=O)(=O)c1ccc(OC)c(Nc2cc(Nc3ccc(Cl)cc3)ncn2)c1` registered a bioavailability in data set [1] of 100%. The same compound registered a clearance in [2] of 26 mL/min/kg. In the data set on Rattus norvegicus, this compound returned an AUC/dose of 0.69 kg·h/L.
In the case of `CNS(=O)(=O)c1cccc(Nc2cc(Nc3ccc(C(F)(F)F)cc3)ncn2)c1`, in data set [4], the 50% inhibitory concentration (IC50) turned out to be 0.079 µM.
Consider `CNS(=O)(=O)c1ccc(Cl)c(Nc2cc(Nc3ccc(Cl)cc3)ncn2)c1`, for which, in data set [1], the bioavailability came to 55%. In addition, in [2], the clearance is 14 mL/min/kg. Besides, the AUC/dose with Rattus norvegicus turned out to be 0.7 kg·h/L.
As to `CNS(=O)(=O)c1ccc(OC)c(Nc2cc(Nc3ccc(Cl)cn3)ncn2)c1`, in [1], the bioavailability is 75%. The IC50 in [4] is not above 0.01 µM; in data set [8], 0.02 µM. Also, in [7], the “Ratio IC50” value is reported as “>=2”. The compound further had a clearance in data set [2] of 9.9 mL/min/kg. Also, the AUC/dose in the data set on Rattus norvegicus stood at 1.3 kg·h/L.
`CNS(=O)(=O)c1cccc(Nc2ncnc(Nc3ccc(Cl)cc3)n2)c1`: the half-inhibitory concentration (IC50) in [4] worked out at 0.05 µM.
For the compound `CNc1cc(Nc2cccc(S(=O)(=O)NC)c2)ncn1`, in [4], the IC50 came out at 0.8 µM.
Regarding `CNS(=O)(=O)c1cccc(Nc2cc(Nc3ccc(OC)cc3)ncn2)c1`, the IC50 in [4] amounted to 0.16 µM.
In the case of `CNS(=O)(=O)c1cccc(Nc2ncnc(Nc3cccc(C)c3)n2)c1`, the IC50 in data set [4] is 0.02 µM.
